Results taken from patent US10493043B2, “Pharmaceutical composition for preventing or treating autoimmune diseases comprising cedrol or derivatives thereof, or pharmaceutically acceptable salts thereof” (University of Seoul Industry Cooperation Foundation, priority 2017, dated 2019).

Key:
psoriasis induced mice [1] = assay: Delay of psoriasis development in imiquimod-induced mice (ear thickness, keratosis, skin flair, pain, hemorrhage spots, wrinkles); format: in vivo, mouse; details: for cumulative psoriasis area severity index (ear thickness, keratosis, skin flair), in words: oral 100 mg/kg once a day, FIG. 7; for number of mice showing hemorrhage spots / number of mice showing skin wrinkles / number of mice showing skin pain: oral 100 mg/kg
Method: (§1) To investigate the delayed effect of cedrol, cedryl acetate, and alpha-cedrene on the development of psoriasis, total 5 groups of mice were prepared (8 mice/group). First, the hair of the entire back of the 8-week-old male Balb/c mouse whose immune system was weakened was removed by using a hair clipper (Kimlaube Hair pen 325,327, Rikei, Korea). In the middle of the shaved back of the mouse, 2 mg of imiquimod (3M Health Care Limited, England) was applied in the area of 2 cm×1.5 cm and also 1,125 mg of imiquimod was applied on the right ear of the mouse every day once a day to induce psoriasis.
The mice prepared above were divided into the distilled water treated group (IMQ), the cedrol treated group (C), the cedryl acetate treated group (CA), and the alpha-cedrene treated group (CE). At this time, the mice were orally treated with distilled water at the concentration of 200 ? /mouse and cedrol or its derivatives at the concentration of 200 ? /mouse (100 mg/kg). The day when distilled water or the compound administration started was recorded as day 0 and the administration was performed once a day for a week, during which photo-recording was performed every day (FIGS. 2A˜2D). In the meantime, instead of applying imiquimod, 40 mg of vaseline was applied on the back of the control group (CONT) and 22.5 mg of vaseline was applied on the right ear of the control group. And the control group was orally administered with distilled water (200 ? /mouse).
Then, the psoriasis area severity index (PASI) was calculated with the range of 1˜4 to confirm the reduction effect of the compounds on the ear thickness.
Then, the psoriasis area severity index (PASI) was calculated to confirm the reduction effect of the compounds on keratosis. Keratosis is a symptom of psoriasis. The application of IMQ can induce keratosis.
Then, the psoriasis area severity index (PASI) was calculated to confirm the reduction effect of the compounds on skin flair. Skin flair is a symptom of psoriasis. The application of IMQ can induce skin flair.
The psoriasis area severity index obtained in Examples <2-3> and <2-5> was accumulated to compare the psoriasis area severity index for ear thickness, keratosis and skin flair of the mouse groups respectively treated with cedrol, cedryl acetate, and alpha-cedrene via oral-administration.
When the back of the psoriasis induced mice orally administered with cedrol, cedryl acetate, and alpha-cedrene of Example <2-1> was pinched, those mice who sound painfully with strong rejection were counted. Skin pain is a symptom of psoriasis, and when IMQ is applied, skin pain becomes stronger as time goes by.
The psoriasis induced mice orally administered with cedrol, cedryl acetate, and alpha-cedrene of Example <2-1> were observed by the naked eye, and the number of mice showing hemorrhage spots was counted. Hemorrhage spot is a symptom of psoriasis, and when IMQ is applied, the number of skin hemorrhage spots increases as time goes by.
The psoriasis induced mice orally administered with cedrol, cedryl acetate, and alpha-cedrene of Example <2-1> were observed by the naked eye, and the number of mice showing skin wrinkles was counted. Skin wrinkle is a symptom of psoriasis, and when IMQ is applied, skin keratinization increases and accordingly skin wrinkles are formed as time goes by.

human IL-17A expression = assay: IL-17A inhibition assay in IL-17 luciferase-(LUCPorter) stable reporter cell line; details: 10, 100, 1,000 μg/ml
psoriasis induced mice [2] = assay: Therapeutic (recovery) effect in psoriasis induced mice after termination of imiquimod application; format: in vivo, mouse; details: for PASI reflecting skin flair: distilled water 0.7±0.6; for number of mice showing hemorrhage spots / number of mice showing skin wrinkles: oral 100 mg/kg
Method: (§2) Imiquimod was applied to the psoriasis induced mice which had developed psoriasis for a week in Example <2-1>. The application was stopped 8 days after the application began. The groups CON and IMQ were treated with distilled water, the group C was treated with cedrol, the group CA was treated with cedryl acetate, the group CE was treated with alpha-cedrene alone at the concentration of 100 mg/kg in 200 ? , every day via oral-administration. Day 8 was the day the imiquimod application was stopped, since then the compounds were administered for 1 week once a day, during which photo-recording was performed (FIGS. 13A˜13D).
The psoriasis area severity index (Psoriasis Area Severity Index, PASI) was given from the point 1 to point 4, based on which the recovery effect on the ear thickness was evaluated.
Then, the psoriasis area severity index (Psoriasis Area Severity Index, PASI) was calculated, based on which the recovery effect on keratosis was evaluated.
The psoriasis area severity index obtained in Examples <3-2> and <3-4> was accumulated to compare the psoriasis area severity index for ear thickness, keratosis and skin flair of the mouse groups respectively treated with cedrol, cedryl acetate, and alpha-cedrene via oral-administration.
The psoriasis induced mice orally administered with cedrol, cedryl acetate, and alpha-cedrene of Example <3-1> were observed by the naked eye, and the number of mice showing the recovery of hemorrhage spots was counted.
The psoriasis induced mice orally administered with cedrol, cedryl acetate, and alpha-cedrene of Example <3-1> were observed by the naked eye, and the number of mice showing the recovery of skin wrinkles was counted.

psoriasis induced mice [3] = assay: Hair regrowth in psoriasis induced mice after termination of imiquimod application; format: in vivo, mouse; details: oral 100 mg/kg
Method: as §2
The psoriasis induced mice orally administered with cedrol, cedryl acetate, and alpha-cedrene of Example <3-1> were observed by the naked eye, and the number of mice showing hair regrowth was counted.

[4] = Weight changes in psoriasis induced mice during oral administration; format: in vivo, mouse; details: oral 100 mg/kg once a day during IMQ application, for 7 days; IMQ alone reduced by 0.48 g
Method: as §1
The mice prepared above were divided into the distilled water treated group (IMQ), the cedrol treated group (C), the cedryl acetate treated group (CA), and the alpha-cedrene treated group (CE). […] The day when distilled water or the compound administration started was recorded as day 0 and the administration was performed once a day for a week, during which photo-recording was performed every day (FIGS. 2A˜2D). […]
To compare the weight changes in the psoriasis induced mice according to the oral administration of cedrol, cedryl acetate, and alpha-cedrene of Example <2-1>, the weight of each mouse was measured at the same time every day for a week.

[5] = day 7, 8 mice/group, IMQ alone 3 mice
[6] = day 7, 8 mice/group, IMQ alone 5 mice
[7] = oral 100 mg/kg once a day, day 16
[8] = day 16, distilled water 1 mouse
[9] = day 16, distilled water one mouse
[10] = oral 100 mg/kg once a day, day 15

SMILES	cumulative psoriasis area severity index (ear thickness, keratosis, skin flair), in words (psoriasis induced mice [1])	number of mice showing hemorrhage spots (psoriasis induced mice [1]; day 5, 8 mice/group)	number of mice showing skin wrinkles (psoriasis induced mice [1]; [5])	number of mice showing hemorrhage spots (psoriasis induced mice [1]; [6])	suppression of the expression of IL-17A (in words) (human IL-17A expression)	PASI reflecting skin flair (psoriasis induced mice [2]; [7])	number of mice showing hemorrhage spots (psoriasis induced mice [2]; [8])	number of mice showing skin wrinkles (psoriasis induced mice [2]; [9])	number of mice showing hair regrowth (psoriasis induced mice [3]; day 16, distilled water 5 mice)	number of mice showing skin wrinkles (psoriasis induced mice [1]; day 5, 8 mice/group)	also measured
CC1=CC[C@@]23C[C@@H]1C(C)(C)[C@@H]2CC[C@H]3C [alpha-cedrene, Alpha-cedrene]	strongest reduction effect	two mice	one mouse	one mouse	dose-dependently	disappeared	no mouse	no mouse	all the mice	–	number of mice showing skin wrinkles (psoriasis induced mice [1]; day 6, 8 mice/group): one mouse; number of mice showing skin pain (psoriasis induced mice [1]; during the 7 day observation period): no mice; number of mice showing hair regrowth (psoriasis induced mice [3]; day 13): one mouse
C[C@@H]1CC[C@H]2C(C)(C)[C@H]3C[C@@]12CC[C@@]3(C)O [cedrol, Cedrol]	–	–	–	–	dose-dependently	disappeared	–	–	all the mice	one mouse	number of mice showing hemorrhage spots (psoriasis induced mice [1]; day 4, 8 mice/group): one mouse; number of mice showing skin pain (psoriasis induced mice [1]; day 4, 8 mice/group): one mouse; number of mice showing skin pain (psoriasis induced mice [1]; day 5, 8 mice/group): no mice; weight change (increase) [4]: 0.025 g; cumulative psoriasis area severity index (ear thickness, keratosis, skin flair), recovery in words (psoriasis induced mice [2]; oral 100 mg/kg once a day, FIG. 17): strongest recovery effect; PASI reflecting keratosis (psoriasis induced mice [2]; [10]): recovered to normal; number of mice showing skin wrinkles (psoriasis induced mice [2]; after day 15): no mouse; number of mice showing hemorrhage spots (psoriasis induced mice [2]; day 12): no mouse
CC(=O)O[C@]1(C)CC[C@@]23C[C@@H]1C(C)(C)[C@@H]2CC[C@H]3C [cedryl acetate, Cedryl acetate]	strongest reduction effect	one mouse	one mouse	one mouse	dose-dependently	–	no mouse	no mouse	–	one mouse	number of mice showing skin pain (psoriasis induced mice [1]; day 6, 8 mice/group): one mouse; number of mice showing skin pain (psoriasis induced mice [1]; [6]): no mice; PASI reflecting the ear thickness (psoriasis induced mice [2]; [10]): recovered to normal; number of mice showing hair regrowth (psoriasis induced mice [3]; day 14, distilled water one mouse): one mouse
